Measurements taken from patent US8759392B2, “Amides as inhibitors of human secreted phospholipase A2” (The Regents of the University of California, priority 2008, dated 2014).

Experiments:
human GV sPLA2 = biological target: T1, human GV sPLA2 (Homo sapiens, UniProt P39877); test: Mixed micelle-based assay, inhibition of GV sPLA2; format: biochemical; conditions: for Inhibition (% at 0.091 mol fraction) sPLA2 GIIA/GV*: 0.091 mole fraction of inhibitor, average and standard error, n = 3
T1 sequence (P39877 21-138): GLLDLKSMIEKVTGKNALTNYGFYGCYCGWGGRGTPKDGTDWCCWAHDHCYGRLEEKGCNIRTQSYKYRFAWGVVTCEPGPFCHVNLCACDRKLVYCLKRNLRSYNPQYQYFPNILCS
Description: FIG. 2 illustrates inhibition curve for an amide of the present disclosure in a mixed-micelle assay with human GV sPLA2. The amides were tested for inhibition of human GIVA cPLA2, GVIA iPLA2 and GV sPLA2 using previously described mixed micelle-based assays.

spinal cord injury (SCI) = test: Spinal cord injury (SCI) in mice
human GIVA cPLA2 = biological target: T2, human GIVA cPLA2 (Homo sapiens, UniProt P47712); test: Mixed micelle-based assay, inhibition of GIVA cPLA2; format: biochemical
T2 sequence (P47712 1-749): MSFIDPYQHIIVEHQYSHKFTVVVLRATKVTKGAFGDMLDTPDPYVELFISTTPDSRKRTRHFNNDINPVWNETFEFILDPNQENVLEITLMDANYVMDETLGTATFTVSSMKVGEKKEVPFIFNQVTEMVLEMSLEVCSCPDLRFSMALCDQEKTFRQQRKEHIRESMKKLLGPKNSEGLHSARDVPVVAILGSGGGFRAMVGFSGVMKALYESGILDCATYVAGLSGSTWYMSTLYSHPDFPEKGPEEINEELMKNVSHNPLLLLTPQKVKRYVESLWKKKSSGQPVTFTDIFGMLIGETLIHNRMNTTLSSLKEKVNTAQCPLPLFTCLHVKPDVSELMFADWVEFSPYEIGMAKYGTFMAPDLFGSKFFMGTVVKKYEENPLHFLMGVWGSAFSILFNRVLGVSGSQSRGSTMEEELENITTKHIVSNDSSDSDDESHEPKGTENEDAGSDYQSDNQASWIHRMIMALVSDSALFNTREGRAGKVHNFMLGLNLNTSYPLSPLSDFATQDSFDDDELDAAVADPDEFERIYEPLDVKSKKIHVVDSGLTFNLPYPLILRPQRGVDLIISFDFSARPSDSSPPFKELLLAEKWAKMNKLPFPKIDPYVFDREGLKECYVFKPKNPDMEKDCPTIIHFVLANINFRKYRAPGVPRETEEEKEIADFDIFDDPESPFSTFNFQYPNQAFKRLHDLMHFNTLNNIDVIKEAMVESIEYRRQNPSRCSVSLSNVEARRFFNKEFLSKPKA
Description: (§1) The amides were tested for inhibition of human GIVA cPLA2, GVIA iPLA2 and GV sPLA2 using previously described mixed micelle-based assays. The resulting degrees of inhibition are presented as either percent inhibition or XI(50) values. […] The XI(50) is the mole fraction of the inhibitor in the total substrate interface required to inhibit the enzyme by 50%.

human GVIA iPLA2 = biological target: T3, human GVIA iPLA2 (Homo sapiens, UniProt O60733); test: Mixed micelle-based assay, inhibition of GVIA iPLA2; format: biochemical
T3 sequence (O60733 1-806): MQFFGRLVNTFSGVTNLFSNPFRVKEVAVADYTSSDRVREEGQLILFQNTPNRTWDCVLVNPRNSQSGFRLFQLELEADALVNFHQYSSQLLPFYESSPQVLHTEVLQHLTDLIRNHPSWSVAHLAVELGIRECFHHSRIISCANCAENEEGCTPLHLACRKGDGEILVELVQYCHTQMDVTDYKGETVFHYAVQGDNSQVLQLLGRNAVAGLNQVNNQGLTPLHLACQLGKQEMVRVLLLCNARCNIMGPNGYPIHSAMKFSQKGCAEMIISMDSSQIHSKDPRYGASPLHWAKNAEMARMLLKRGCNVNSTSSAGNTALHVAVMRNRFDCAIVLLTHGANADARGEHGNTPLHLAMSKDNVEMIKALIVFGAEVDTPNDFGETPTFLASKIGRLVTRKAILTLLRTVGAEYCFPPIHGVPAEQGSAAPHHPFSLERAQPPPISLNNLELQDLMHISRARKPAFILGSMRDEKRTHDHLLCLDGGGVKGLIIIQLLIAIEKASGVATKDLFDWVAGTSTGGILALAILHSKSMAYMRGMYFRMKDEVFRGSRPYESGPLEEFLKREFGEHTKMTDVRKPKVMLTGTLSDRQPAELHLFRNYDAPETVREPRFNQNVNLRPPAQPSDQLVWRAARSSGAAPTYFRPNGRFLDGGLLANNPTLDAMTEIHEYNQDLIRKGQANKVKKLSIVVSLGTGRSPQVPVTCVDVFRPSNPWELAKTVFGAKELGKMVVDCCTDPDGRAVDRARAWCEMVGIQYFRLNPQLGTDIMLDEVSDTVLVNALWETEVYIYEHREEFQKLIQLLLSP
Description: as §1

secreted PLA2 = conditions: known inhibitors of FIG. 1; cited from earlier work
[1] = 0.091 mole fraction of inhibitor, average and standard error, n = 3

SMILES	Activity on GV sPLA2 (in words) (human GV sPLA2)	Inhibition (% at 0.091 mol fraction) sPLA2 GIIA/GV* (human GV sPLA2) [%]	XI(50) GV sPLA2 (human GV sPLA2; mole fraction of inhibitor in total substrate interface for 50% inhibition, non-linear regression (hyperbolic)) [mole fraction]	Myelin sparing (luxol fast blue) (spinal cord injury (SCI); 28 days after SCI, […])	Locomotor function, 9-point Basso Mouse Scale (BMS) score (spinal cord injury (SCI); administration started 1 hour after SCI, vs vehicle treated mice, significant from day 5 dpi through the follow up)	Activity on GIVA cPLA2 (in words) (human GIVA cPLA2)	Activity on GVIA iPLA2 (in words) (human GVIA iPLA2)	Inhibition of secreted PLA2 (in words) (secreted PLA2)	Inhibition (% at 0.091 mol fraction) cPLA2 GIVA (human GIVA cPLA2; [1])	Inhibition (% at 0.091 mol fraction) iPLA2 GVIA (human GVIA iPLA2; [1]) [%]	XI(50) iPLA2 GVIA (human GVIA iPLA2; mole fraction of inhibitor in total substrate interface required to inhibit the enzyme by 50%) [mole fraction]
CCCC[C@H](CCC(=O)O)NC(=O)CCCCCCc1ccccc1 [Compound 9, (R)-4-(7-phenylheptanamido)octanoic acid]	potent and selective GV sPLA2 inhibitor	> 95	0.003±0.0004	significant myelin sparing	improved locomotor function	not affecting at all	not affecting at all				
CCC[C@H](CCC(=O)O)NC(=O)CCCCCCc1ccccc1 [Compound 2]								potent inhibitor			
O=C(CCCCc1ccccc1)C(F)(F)C(F)(F)F [FKGK11, reference compound]		28 ± 1							N.D. (N.D. signifies compounds with less than 25% inhibition (or no detectable inhibition))	> 95	0.0096 ± 0.0008
